We go through four compounds from patent US9884849B2, “Fluorinated benzofuranyl-pyrimidine derivatives containing a sulfoximine group” (Bayer Pharma Aktiengesellschaft, priority 2014, dated 2018).

The structures appear in SMILES notation. Where two headings read alike, the source gives them in different places.

One test addresses T1, CDK2/CycE (Homo sapiens, UniProt P24941).
T1 construct: GST; purchased ProQinase GmbH (Freiburg, Germany); host or cells: insect cells (Sf9)
Briefly: CDK2/CycE high ATP kinase assay (Method 2b, TR-FRET). The format is biochemical. Conditions: 2 mM ATP. How it is done:
2b. CDK2/CycE High ATP Kinase Assay:
CDK2/CycE-Inhibitory Activity of Compounds of the Present Invention at 2 mM Adenosine-Tri-Phosphate (ATP) was Quantified Employing the CDK2/CycE TR-FRET (TR-FRET=Time Resolved Fluorescence Energy Transfer) Assay as Described in the Following Paragraphs.
Recombinant fusion proteins of GST and human CDK2 and of GST and human CycE, expressed in insect cells (Sf9) and purified by Glutathion-Sepharose affinity chromatography, were purchase from ProQinase GmbH (Freiburg, Germany). As substrate for the kinase reaction biotinylated peptide biotin-Ttds-YISPLKSPYKISEG (C-terminus in amid form) was used which can be purchased e.g. form the company JERINI peptide technologies (Berlin, Germany).
For the assay 50 nl of a 100 fold concentrated solution of the test compound in DMSO was pipetted into a black low volume 384 well microtiter plate (Greiner Bio-One, Frickenhausen, Germany), 2 yl of a solution of CDK2/CycE in aqueous assay buffer [50 mM Tris/HCl pH 8.0, 10 mM MgCl2, 1.0 mM dithiothreitol, 0.1 mM sodium ortho-vanadate, 0.01% (v/v) Nonidet-P40 (Sigma)] were added and the mixture was incubated for 15 min at 22° C. to allow pre-binding of the test compounds to the enzyme before the start of the kinase reaction. […] The concentration of CDK2/CycE was adjusted depending of the activity of the enzyme lot and was chosen appropriate to have the assay in the linear range, typical concentrations were in the range of 15 ng/ml. The reaction was stopped by the addition of 5 yl of a solution of TR-FRET detection reagents (0.2 μM streptavidine-XL665 [Cisbio Bioassays, Codolet, France] and 1 nM anti-RB(pSer807/pSer811)-antibody from BD Pharmingen [#558389] and 1.2 nM LANCE EU-W1024 labeled anti-mouse IgG antibody [Perkin-Elmer, product no. AD0077, as an alternative a Terbium-cryptate-labeled anti-mouse IgG antibody from Cisbio Bioassays can be used]) in an aqueous EDTA-solution (100 mM EDTA, 0.2% (w/v) bovine serum albumin in 100 mM HEPES/NaOH pH 7.0).
The resulting mixture was incubated 1 h at 22° C. to allow the formation of complex between the phosphorylated biotinylated peptide and the detection reagents. Subsequently the amount of phosphorylated substrate was evaluated by measurement of the resonance energy transfer from the Eu-chelate to the streptavidine-XL. Therefore, the fluorescence emissions at 620 nm and 665 nm after excitation at 350 nm were measured in a TR-FRET reader, e.g. a Rubystar (BMG Labtechnologies, Offenburg, Germany) or a Viewlux (Perkin-Elmer). The ratio of the emissions at 665 nm and at […] was taken as the measure for the amount of phosphorylated substrate. The data were normalised (enzyme reaction without inhibitor=0% inhibition, all other assay components but no enzyme=100% inhibition).
In general terms: TR-FRET usually uses a lanthanide donor and a delayed reading to cut background.

A further test relates to HeLa-MaTu-ADR cells. Kind of test: Proliferation assay HeLa-MaTu-ADR (Method 3). Type of test: cell-based, human. The note with it: 4 days, crystal violet, read-out: Inhibition of HeLa-MaTu-ADR cell proliferation IC50. How it is done: (§1) Cultivated tumour cells (HeLa, human cervical tumour cells, ATCC CCL-2; NCI-H460, human non-small cell lung carcinoma cells, ATCC HTB-177; A2780, human ovarian carcinoma cells, ECACC #93112519; DU 145, hormone-independent human prostate carcinoma cells, ATCC HTB-81; HeLa-MaTu-ADR, multidrug-resistant human cervical carcinoma cells, EPO-GmbH Berlin; Caco-2, human colorectal carcinoma cells, ATCC HTB-37; B16F10, mouse melanoma cells, ATCC CRL-6475) were plated at a density of 5,000 cells/well (DU145, HeLa-MaTu-ADR), 3,000 cells/well (NCI-H460, HeLa), 2,500 cells/well (A2780), 1,500 cells/well (Caco-2), or 1,000 cells/well (B16F10) in a 96-well multititer plate in 200 μL of their respective growth medium supplemented 10% fetal calf serum. After 24 hours, the cells of one plate (zero-point plate) were stained with crystal violet (see below), while the medium of the other plates was replaced by fresh culture medium (200 μl), to which the test substances were added in various concentrations (0 μM, as well as in the range of 0.001-10 μM; the final concentration of the solvent dimethyl sulfoxide was 0.5%). The cells were incubated for 4 days in the presence of test substances. Cell proliferation was determined by staining the cells with crystal violet: the cells were fixed by adding 20 μl/measuring point of an 11% glutaric aldehyde solution for 15 minutes at room temperature. After three washing cycles of the fixed cells with water, the plates were dried at room temperature. The cells were stained by adding 100 μl/measuring point of a 0.1% crystal violet solution (pH 3.0). After three washing cycles of the stained cells with water, the plates were dried at room temperature. The dye was dissolved by adding 100 μl/measuring point of a 10% acetic acid solution. The extinction was determined by photometry at a wavelength of 595 nm. The change of cell number, in percent, was calculated by normalization of the measured values to the extinction values of the zero-point plate (=0%) and the extinction of the untreated (0 μm) cells (=100%). The IC50 values (inhibitory concentration at 50% of maximal effect) were determined by means of a 4 parameter fit.

In another test the test system is DU145 cells. Kind of test: Proliferation assay DU145 (Method 3). Conditions: DU145, 4 days, crystal violet, read-out: Inhibition of DU145 cell proliferation IC50. Type of test: cell-based, human. How it is done:
as §1

For the compound `CS(=N)(=O)Cc1cc(F)cc(Nc2ncc(F)c(-c3ccc(F)c4ccoc34)n2)c1` (single isomer, unassigned) [Example 11, 5-Fluoro-4-(4-fluoro-1-benzofuran-7-yl)-N-{3-fluoro-5-[(S-methylsulfonimidoyl)-methyl]-phenyl}-pyrimidin-2-amine], the IC50 is 913 nM against CDK2/CycE; 200 nM in the test on HeLa-MaTu-ADR cells; 41 nM with DU145 cells (Homo sapiens, DU-145, 96 h).
In the case of `CS(=N)(=O)Cc1cc(F)cc(Nc2ncc(F)c(-c3ccc(F)c4ccoc34)n2)c1` (single isomer, unassigned) [Example 12, 5-Fluoro-4-(4-fluoro-1-benzofuran-7-yl)-N-{3-fluoro-5-[(S-methylsulfonimidoyl)-methyl]-phenyl}-pyrimidin-2-amine], the IC50 is 1250 nM at CDK2/CycE, 88 nM in the test on HeLa-MaTu-ADR cells and 62 nM in the test on DU145 cells.
On to `Cc1cc(CS(C)(=O)=NC#N)cc(Nc2ncc(F)c(-c3ccc(F)c4ccoc34)n2)c1` (single isomer, unassigned) [Example 14, [(3-{[5-Fluoro-4-(4-fluoro-1-benzofuran-7-yl)pyrimidin-2-yl]amino}-5-methylbenzyl)-(methyl)oxido-λ^6-sulfanylidene]cyanamide], for which the IC50 against CDK2/CycE was 846 nM; in the test on HeLa-MaTu-ADR cells (Homo sapiens, 96 h), 57 nM; in the test with DU145 cells (Homo sapiens, DU-145, 96 h), 66 nM.
With `Cc1cc(CS(C)(=O)=NC#N)cc(Nc2ncc(F)c(-c3ccc(F)c4ccoc34)n2)c1` (single isomer, unassigned) [Example 15, [(3-{[5-Fluoro-4-(4-fluoro-1-benzofuran-7-yl)pyrimidin-2-yl]amino}-5-methylbenzyl)-(methyl)oxido-λ^6-sulfanylidene]cyanamide], the IC50 is 835 nM against CDK2/CycE, 110 nM with HeLa-MaTu-ADR cells and 101 nM with DU145 cells.
